# Reference: patent US20260062387A1, “SALT-INDUCIBLE KINASE INHIBITOR COMPOUND AND PHARMACEUTICAL COMPOSITION INCLUDING THE SAME” (MITSUBISHI TANABE PHARMA CORPORATION, priority 2023, published 2026)
# Experiments:
# Format in all cases: biochemical
# GST-tagged SIK2 = GST-tagged SIK2 (Homo sapiens (Human), UniProt Q9H0K1); test: SIK2 inhibition test (ADP-Glo Max Assay); conditions: enzyme 3 nM, AMARA Peptide 200 μM, ATP 1 mM, 2 hours room temperature
# Description: (§1) The compounds described in Examples above were used in the SIK1, SIK2, and SIK3 inhibition test.
# (§2) The inhibitory activity of the compound for SIK1, SIK2, and SIK3 enzymes was assayed by measuring the amount of ADP, an enzyme reaction product, with ADP-Glo™ Max Assay (Promega). Enzymes, specifically, GST-tagged SIK1 (Carna Biosciences, Inc.), GST-tagged SIK2 (Carna Biosciences, Inc.), and GST-tagged SIK3 (SignalChem) were prepared in a reaction buffer (15 mM tris-hydrochloric acid buffer (pH 7.5), 0.001% Triton X-100, 0.01% BSA) so that the final concentration would be 20 nM, 3 nM, and 100 nM. Enzyme solutions were thus formed. In a reaction buffer, AMARA Peptide (SignalChem) as a substrate with a final concentration of 200 μM (SIK1, SIK2) or 100 μM (SIK3), ATP (Promega) with a final concentration of 1 mM, and magnesium chloride with a final concentration of 5 mM were prepared. Substrate solutions were thus formed. The enzyme solution, the substrate solution, and a DMSO solution of a concentration of the test compound were mixed together and reacted at room temperature for 2 hours. After the reaction, ADP-Glo™ Reagent (Promega) was added, and the reaction was performed at room temperature for 30 minutes. Subsequently, ADP-Glo™ Max Detection Reagent (Promega) was added, and the reaction was performed at room temperature for 30 minutes. The emission by the luciferase reaction was measured with PHERAstar FSX (BMG LABTECH).
# (§3) The inhibitory ratio (%) was calculated by: % Inhibition={1−(intensity of sample−intensity of blank (no enzyme solution added))/(intensity of control (DMSO alone)−intensity of blank)}×100. The inhibitory concentration IC50 was calculated based on 16 data values obtained in the concentration response test.
# GST-tagged SIK1 = GST-tagged SIK1 (Homo sapiens (Human), UniProt P57059); test: SIK1 inhibition test (ADP-Glo Max Assay); conditions: enzyme 20 nM, AMARA Peptide 200 μM, ATP 1 mM, 2 hours room temperature
# Description: as §1, §2, §3
# GST-tagged SIK3 = GST-tagged SIK3 (Homo sapiens (Human), UniProt Q9Y2K2); test: SIK3 inhibition test (ADP-Glo Max Assay); conditions: enzyme 100 nM, AMARA Peptide 100 μM, ATP 1 mM, 2 hours room temperature
# Description: as §1, §2, §3
# Sequence of GST-tagged SIK1 (P57059 whole entry): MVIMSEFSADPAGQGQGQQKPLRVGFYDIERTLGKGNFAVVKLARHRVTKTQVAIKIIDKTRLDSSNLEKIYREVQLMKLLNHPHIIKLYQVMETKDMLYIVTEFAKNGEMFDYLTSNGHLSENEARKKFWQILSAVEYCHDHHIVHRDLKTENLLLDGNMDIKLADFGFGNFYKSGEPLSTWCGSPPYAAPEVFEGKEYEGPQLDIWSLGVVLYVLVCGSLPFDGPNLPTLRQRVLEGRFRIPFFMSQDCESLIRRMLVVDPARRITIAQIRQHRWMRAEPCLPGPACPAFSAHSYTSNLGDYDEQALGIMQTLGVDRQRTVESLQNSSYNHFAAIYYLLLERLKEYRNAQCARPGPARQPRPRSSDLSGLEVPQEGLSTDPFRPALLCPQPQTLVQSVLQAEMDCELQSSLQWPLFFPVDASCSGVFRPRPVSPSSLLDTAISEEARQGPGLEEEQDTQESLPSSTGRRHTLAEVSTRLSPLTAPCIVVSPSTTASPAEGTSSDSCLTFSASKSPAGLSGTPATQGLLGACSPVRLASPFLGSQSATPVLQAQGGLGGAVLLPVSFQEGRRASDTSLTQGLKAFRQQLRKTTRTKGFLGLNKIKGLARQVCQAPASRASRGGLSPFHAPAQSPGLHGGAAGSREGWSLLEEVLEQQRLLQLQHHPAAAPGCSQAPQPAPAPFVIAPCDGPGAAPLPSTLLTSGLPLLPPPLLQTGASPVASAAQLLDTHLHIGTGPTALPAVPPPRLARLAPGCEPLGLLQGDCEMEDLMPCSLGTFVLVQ
# Sequence of GST-tagged SIK3 (Q9Y2K2 whole entry): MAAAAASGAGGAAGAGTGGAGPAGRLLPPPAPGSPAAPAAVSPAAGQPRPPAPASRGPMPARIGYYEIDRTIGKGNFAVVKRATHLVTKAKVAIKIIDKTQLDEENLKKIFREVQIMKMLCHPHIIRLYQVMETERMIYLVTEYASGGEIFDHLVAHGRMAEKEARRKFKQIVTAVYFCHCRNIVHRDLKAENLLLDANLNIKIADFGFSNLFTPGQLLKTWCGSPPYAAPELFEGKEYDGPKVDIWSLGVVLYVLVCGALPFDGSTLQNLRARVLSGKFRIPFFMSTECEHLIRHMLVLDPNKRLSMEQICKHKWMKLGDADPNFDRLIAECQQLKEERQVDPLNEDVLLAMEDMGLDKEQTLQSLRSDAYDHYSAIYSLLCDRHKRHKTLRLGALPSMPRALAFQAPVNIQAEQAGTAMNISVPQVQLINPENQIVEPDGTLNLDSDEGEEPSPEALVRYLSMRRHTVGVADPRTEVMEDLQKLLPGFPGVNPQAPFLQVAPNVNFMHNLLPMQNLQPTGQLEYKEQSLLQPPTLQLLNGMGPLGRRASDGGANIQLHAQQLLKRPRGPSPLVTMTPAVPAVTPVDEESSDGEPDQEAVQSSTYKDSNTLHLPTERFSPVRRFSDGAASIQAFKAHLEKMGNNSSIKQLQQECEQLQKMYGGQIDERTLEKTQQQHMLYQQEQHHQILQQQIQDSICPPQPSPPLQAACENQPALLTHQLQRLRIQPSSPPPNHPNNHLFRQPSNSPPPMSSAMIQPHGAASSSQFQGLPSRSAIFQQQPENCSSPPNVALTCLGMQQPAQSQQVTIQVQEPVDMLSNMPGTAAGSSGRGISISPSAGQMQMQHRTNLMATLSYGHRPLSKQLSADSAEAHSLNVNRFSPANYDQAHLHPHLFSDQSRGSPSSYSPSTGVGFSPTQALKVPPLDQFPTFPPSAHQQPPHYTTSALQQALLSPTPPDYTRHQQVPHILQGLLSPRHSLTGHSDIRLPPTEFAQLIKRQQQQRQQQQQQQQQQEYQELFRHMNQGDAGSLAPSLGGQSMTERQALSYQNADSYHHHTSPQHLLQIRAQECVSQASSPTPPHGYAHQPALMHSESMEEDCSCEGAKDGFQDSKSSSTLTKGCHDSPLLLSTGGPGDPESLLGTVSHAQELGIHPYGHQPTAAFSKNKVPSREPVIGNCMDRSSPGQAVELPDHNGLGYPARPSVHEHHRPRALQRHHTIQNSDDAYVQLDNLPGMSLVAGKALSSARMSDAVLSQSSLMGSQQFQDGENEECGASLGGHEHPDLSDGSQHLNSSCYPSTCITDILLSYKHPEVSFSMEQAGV
# Sequence of GST-tagged SIK2 (Q9H0K1 whole entry): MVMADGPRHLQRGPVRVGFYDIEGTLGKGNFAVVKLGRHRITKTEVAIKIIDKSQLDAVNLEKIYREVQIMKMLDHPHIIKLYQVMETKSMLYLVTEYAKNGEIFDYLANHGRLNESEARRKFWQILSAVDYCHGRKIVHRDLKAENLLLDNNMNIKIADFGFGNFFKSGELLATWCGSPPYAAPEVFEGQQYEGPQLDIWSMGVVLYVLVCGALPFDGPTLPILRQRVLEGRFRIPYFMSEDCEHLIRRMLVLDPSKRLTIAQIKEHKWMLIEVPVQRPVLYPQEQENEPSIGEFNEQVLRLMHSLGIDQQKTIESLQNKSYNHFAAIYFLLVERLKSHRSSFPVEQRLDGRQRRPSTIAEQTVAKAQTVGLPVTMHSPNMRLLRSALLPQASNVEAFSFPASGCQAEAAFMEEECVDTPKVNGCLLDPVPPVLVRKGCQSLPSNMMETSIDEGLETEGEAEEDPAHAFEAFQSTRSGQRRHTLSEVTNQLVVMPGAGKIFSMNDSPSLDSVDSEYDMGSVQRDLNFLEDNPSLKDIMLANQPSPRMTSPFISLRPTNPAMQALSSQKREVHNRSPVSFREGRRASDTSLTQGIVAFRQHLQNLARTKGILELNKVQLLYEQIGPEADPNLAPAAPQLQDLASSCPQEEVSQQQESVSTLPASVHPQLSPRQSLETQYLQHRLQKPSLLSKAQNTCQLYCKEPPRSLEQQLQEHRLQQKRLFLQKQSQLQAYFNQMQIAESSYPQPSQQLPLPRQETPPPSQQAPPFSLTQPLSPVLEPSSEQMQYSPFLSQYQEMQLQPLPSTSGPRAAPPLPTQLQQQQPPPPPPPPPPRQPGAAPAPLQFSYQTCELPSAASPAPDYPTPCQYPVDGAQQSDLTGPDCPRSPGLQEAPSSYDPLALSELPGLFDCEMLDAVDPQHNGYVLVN
SMILES,IC50 (GST-tagged SIK2) [nM],IC50 (GST-tagged SIK1) [nM],IC50 (GST-tagged SIK3) [nM]
"COc1cc(-c2c3c(C#N)cc(-c4cnn(C)c4)cc3nn2C)cc(OC(F)F)c1C(=O)NC[C@@H]1CC1(F)F (single isomer, unassigned) [Example 46]",5.3,14.7,7.2
"COc1cc(-c2c3c(C#N)cc(-c4cnn(CCN5CCOCC5)c4)cc3nn2C)cc(OC(F)F)c1C(=O)NC[C@@H]1CC1(F)F (single isomer, unassigned) [Example 85]",7.1,9.9,8.6
"COc1cc(-c2c3c(C#N)cc(-c4cnn(CC(C)(C)O)c4)cc3nn2C)cc(OC(F)F)c1C(=O)NC[C@@H]1CC1(F)F (single isomer, unassigned) [Example 86]",13.1,13.7,19.4
"COc1cc(-c2c3c(C#N)cc(-c4cnn(C)c4)cc3nn2C)cc2c1C(=O)NC[C@@H]2C (single isomer, unassigned) [Example 88]",4.5,7.4,5.3
"COc1cc(-c2c3c(C#N)cc(-c4cnn(C[C@H](C)O)c4)cc3nn2C)cc(OC(F)F)c1C(=O)NC[C@@H]1CC1(F)F (single isomer, unassigned) [Example 95, 4-[4-cyano-6-[1-[(2S)-2-hydroxypropyl]pyrazol-4-yl]-2-methylindazol-3-yl]-N-[[(1R*)-2,2-difluorocyclopropyl]methyl]-2-(difluoromethoxy)-6-methoxybenzamide]",13.3,16,5.7
"CCn1cc(-c2cc(C#N)c3c(-c4cc(OC)c5c(c4)[C@@H](C)CNC5=O)n(C)nc3c2)cn1 (single isomer, unassigned) [Example 105]",3.4,10,8.1
"COc1cc(-c2c3c(C#N)cc(-c4cnn(CC(F)F)c4)cc3nn2C)cc2c1C(=O)NC[C@@H]2C (single isomer, unassigned) [Example 107]",4,8.3,8
"COc1cc(-c2c3c(C#N)cc(-c4cnn(CC(F)(F)F)c4)cc3nn2C)cc2c1C(=O)NC[C@@H]2C (single isomer, unassigned) [Example 126]",1.5,7.3,5.1
"COCCn1cc(-c2cc(C#N)c3c(-c4cc(OC)c5c(c4)[C@@H](C)CNC5=O)n(C)nc3c2)cn1 (single isomer, unassigned) [Example 127]",1.3,6.9,7.6
"COc1cc(-c2c3c(C#N)cc(-c4cnn(C(F)F)c4)cc3nn2C)cc2c1C(=O)NC[C@@H]2C (single isomer, unassigned) [Example 128]",1,8.2,6.6
"CCOc1cc(-c2cnn(C)c2)cc2nn(C)c(-c3cc(OC)c4c(c3)[C@@H](C)CNC4=O)c12 (single isomer, unassigned) [Example 163]",1.4,5.1,11.6
"COc1cc(-c2c3c(OC(F)F)cc(-c4cnn(C)c4)cc3nn2C)cc2c1C(=O)NC[C@@H]2C (single isomer, unassigned) [Example 164]",2,7.1,19.7
"COc1cc(-c2cnn(C)c2)cc2nn(C)c(-c3cc(OC(F)F)c4c(c3)[C@@H](C)CNC4=O)c12 (single isomer, unassigned) [Example 165]",1.5,5.2,6.8
"COc1cc(-c2cnn(C)c2)cc2nn(C)c(-c3cc(OC(F)F)c4c(c3)[C@@H](C)CNC4=O)c12 (single isomer, unassigned) [Example 166]",3.1,11.9,9.6
"COc1cc(-c2c3c(C#N)cc(-c4cnn(C(C)C)c4)cc3nn2C)cc2c1C(=O)NC[C@@H]2C (single isomer, unassigned) [Example 167]",1.7,8.5,4.1
"CCCCn1cc(-c2cc(C#N)c3c(-c4cc(OC)c5c(c4)[C@@H](C)CNC5=O)n(C)nc3c2)cn1 (single isomer, unassigned) [Example 168]",1.4,6.8,2.7
"COc1cc(-c2c3c(C#N)cc(-c4cnn(CC(C)C)c4)cc3nn2C)cc2c1C(=O)NC[C@@H]2C (single isomer, unassigned) [Example 169]",1.9,8.1,3.4

SMILES,IC50 (GST-tagged SIK2) [nM],IC50 (GST-tagged SIK1) [nM],IC50 (GST-tagged SIK3) [nM]
"COc1cc(-c2c3c(C#N)cc(-c4cnn(CC5CC5)c4)cc3nn2C)cc2c1C(=O)NC[C@@H]2C (single isomer, unassigned) [Example 170]",1.7,8.5,4.3
"COc1cc(-c2c3c(C#N)cc(-c4cnn(CCC(C)C)c4)cc3nn2C)cc2c1C(=O)NC[C@@H]2C (single isomer, unassigned) [Example 171]",2.3,9.1,4.7
"COCCn1cc(-c2cc(C#N)c3c(-c4cc(OC(F)F)c5c(c4)[C@@H](C)CNC5=O)n(C)nc3c2)cn1 (single isomer, unassigned) [Example 172]",7.8,19.5,7
"COCCn1cc(-c2cc(C#N)c3c(-c4cc(OC(F)F)c5c(c4)[C@@H](C)CNC5=O)n(C)nc3c2)cn1 (single isomer, unassigned) [Example 173]",2.1,7.5,3.5
"CCn1cc(-c2cc(C#N)c3c(-c4cc(OC(F)F)c5c(c4)[C@@H](C)CNC5=O)n(C)nc3c2)cn1 (single isomer, unassigned) [Example 174]",2.3,8.6,2.6
"COc1cc(-c2cnn(C[C@H](C)O)c2)cc2nn(C)c(-c3cc(OC(F)F)c4c(c3)[C@@H](C)CNC4=O)c12 (single isomer, unassigned) [Example 175]",2.9,7.5,7.2
"COc1cc(-c2cnn(C[C@H](C)O)c2)cc2nn(C)c(-c3cc(OC(F)F)c4c(c3)[C@@H](C)CNC4=O)c12 (single isomer, unassigned) [Example 176]",5.9,11,11.9
"COCCn1cc(-c2cc(OC)c3c(-c4cc(OC(F)F)c5c(c4)[C@@H](C)CNC5=O)n(C)nc3c2)cn1 (single isomer, unassigned) [Example 177]",3.1,5.4,10.1
"COCCn1cc(-c2cc(OC)c3c(-c4cc(OC(F)F)c5c(c4)[C@@H](C)CNC5=O)n(C)nc3c2)cn1 (single isomer, unassigned) [Example 178]",4.7,10.1,15.6
"CCn1cc(-c2cc(OC)c3c(-c4cc(OC(F)F)c5c(c4)[C@@H](C)CNC5=O)n(C)nc3c2)cn1 (single isomer, unassigned) [Example 179]",2,5.7,6.1
"CCn1cc(-c2cc(OC)c3c(-c4cc(OC(F)F)c5c(c4)[C@@H](C)CNC5=O)n(C)nc3c2)cn1 (single isomer, unassigned) [Example 180]",5.1,13.2,12.4
"C[C@H]1CNC(=O)c2c(OC(F)F)cc(-c3c4c(C#N)cc(-c5cnn(C)c5)cc4nn3C)cc21 (single isomer, unassigned) [Example 181]",6.1,19.4,3.5
"C[C@H]1CNC(=O)c2c(OC(F)F)cc(-c3c4c(C#N)cc(-c5cnn(C)c5)cc4nn3C)cc21 (single isomer, unassigned) [Example 182]",2.5,6.4,2
"COc1cc(-c2c3c(C#N)cc(-c4cnn(CCN5CC(F)(F)C5)c4)cc3nn2C)cc(OC(F)F)c1C(=O)NC[C@@H]1CC1(F)F (stereo in doubt) [Example 108, 4-[4-cyano-6-[1-[2-(3,3-difluoroazetidin-1-yl)ethyl]pyrazol-4-yl]-2-methylindazol-3-yl]-2-(difluoromethoxy)-6-methoxy-N-[[rel-(1R)-2,2-difluorocyclopropyl]methyl]benzamide]",6.5,16.8,2.4
"COc1cc(-n2cnc3cc(-c4cnn(C)c4)ccc32)cc(OC)c1C(=O)NCC(F)F [Comparative Example 2, reference compound]",86.4,1000,39.7
"COc1cc(-c2cnc3cc(-c4cnn(C)c4)ccn23)cc2c1C(=O)N(C1CC1)CC2 [Comparative Example 3, 2-cyclopropyl-8-methoxy-6-[7-(1-methylpyrazol-4-yl)imidazo[1,2-a]pyridin-3-yl]-3,4-dihydroisoquinolin-1-one, reference compound]",22.7,398,6.5
